Test results: patent US20260097036A1 (Kadmon Corporation, LLC, priority 2022, published 2026)
Where “and” joins values, the source holds several entries; their conditions need not be identical. Identical values can stand only once. Like-named read-outs stand apart in the source and are kept apart here.

Columns and labels:
[1] = Part 2 relative bioavailability and food effect, plasma PK; type: in vivo, human; conditions: for Tlag / Tmax / AUC (0-24) / AUC (0-last) / Cmax / Lambda-z / T1/2 / median Tmax / AUC % extrap / half-life / AUC(0-inf) / AUC(0-t): plasma; for peak (Cmax) and total exposure (AUC), liquid formulation vs tablet: both in the fed state, GMR comparison; for food effect on exposure, fed vs fasted: oral liquid formulation
Method: Subjects underwent preliminary screening procedures to determine their eligibility for Part 2 of the study at the screening visit (Day −28 to Day −2 of Part 2). Subjects who took part in Part 1 of the study were permitted to take part in Part 2.
Three different regimens (G, H, and I), were used over the three periods. In Regimen G, belumosudil was administered in Tablet form (reference); and in Regimens H and I, belumosudil was administered in the form of Oral Liquid Formulation.
In Period 1, Day 1: subjects were randomized prior to administration of the first dose of IMP to 1 of 6 treatment sequences (GHI, HIG, IGH, IHG, GIH and HGI) with 3 subjects assigned to each treatment sequence. On Day 1 of each study period (periods 1, 2 and 3), subjects received the regimens in Table 36:
Regimen H was administered to subjects as a flavorless low sucralose liquid formulation in a fasted state, and Regimens G and I were administered to subjects in a fed state. Regimen G was administered with a total of 240 mL of water. For Regimens H and I, immediately after IMP administration, subjects consumed water to a total volume of 240 mL (including the dosing volume).
Subjects received a single dose of IMP in the morning of Day 1 following an overnight fast of a minimum of 10 h (Regimen H, fasted state) or following a standard breakfast (Regimens G and I, fed state). Blood samples were collected at regular intervals for PK analysis. Following administration of Regimen H, subjects completed a written taste/palatability questionnaire individually and privately.
Subjects were resident in the clinical unit for 10 consecutive nights that covered all 3 treatment periods. All subjects remained on site until 72 h post-final dose for safety and PK assessments. There was a minimum washout of 3 days between each IMP administration. To ensure the ongoing wellbeing of the subjects, a follow-up phone call took place 3 to 7 days post-final dose. If a subject reported any AEs after discharge which represented a cause for concern, they were required to attend the clinical unit for a follow-up assessment. This would have been an unscheduled visit.

[2] = cited from earlier work
[3] = particle size distribution, Sympatec Helos wet dispersion; type: physicochemical; conditions: 40 mg/mL in water, R3 and R5 lens
Method: Samples were assessed using the Sympatec Helos Particle Size Analyzer using the generic method for wet dispersions as outlined below: • R5 Lens and R3 Lens • Sample added until 10-15% Copt achieved • Method run producing 3 replicates (sample stirred and sonicated throughout measurement run)
Samples were assessed using the Sympatec Helos Particle Size Analyzer, with sample added until 10-15% Copt was achieved. Two different lens assemblies were used giving the following ranges for particle size assessment, R3 Lens (0.5-175 μm) and the R5 Lens (4.8-875 μm). Three replicates were performed as part of the measurement run, with the sample stirred and sonicated as part of the method.

[4] = Regimen G: 200 mg Tablet, Fed, single oral dose, healthy male volunteers, median (range)
[5] = Regimen G: 200 mg Tablet, Fed, single oral dose, geometric mean (CV%)
[6] = Regimen G: 200 mg Tablet, Fed, single oral dose, geometric mean (CV%), individual values where n <= 2
[7] = Regimen H: 200 mg Liquid Formulation, Fasted, single oral dose, healthy male volunteers, median (range)
[8] = Regimen H: 200 mg Liquid Formulation, Fasted, single oral dose, geometric mean (CV%)
[9] = Regimen H: 200 mg Liquid Formulation, Fasted, single oral dose, geometric mean (CV%), individual values where n <= 2
[10] = Regimen I: 200 mg Liquid Formulation, Fed, single oral dose, healthy male volunteers, median (range)
[11] = Regimen I: 200 mg Liquid Formulation, Fed, single oral dose, geometric mean (CV%)
[12] = Regimen I: 200 mg Liquid Formulation, Fed, single oral dose, geometric mean (CV%), individual values where n <= 2

NC(=O)COc1cccc(-c2nc(Nc3ccc4[nH]ncc4c3)c3ccccc3n2)c1 [KD025m1]
Tlag [1, 4]: 1.00 h
Tmax [1, 4]: 2.00 h
AUC (0-24) [1, 5]: 45.3 (63.9%) [n = 15] ng · h/mL
AUC (0-last) [1, 5]: 42.7 (50.7%) [n = 15] ng · h/mL
Cmax [1, 5]: 22.3 ng/mL
Lambda-z [1, 6]: 0.24 h⁻¹ and 0.38 h⁻¹
T1/2 [1, 6]: 1.81 h and 2.88 h
Tlag [1, 7]: 0.00 (0.00-1.00) [n = 17] h
Tmax [1, 7]: 1.00 (0.500-1.50) [n = 17] h
AUC (0-24) [1, 8]: 34.9 (104.8%) [n = 12] ng · h/mL
AUC (0-last) [1, 8]: 30.3 (70.9%) [n = 12] ng · h/mL
Cmax [1, 8]: 19.0 (41.7%) [n = 17] ng/mL
Lambda-z [1, 9]: 0.26 h⁻¹ and 0.3 h⁻¹
T1/2 [1, 9]: 2.28 h and 2.67 h
Tlag [1, 10]: 0.500 (0.00-1.00) [n = 17] h
Tmax [1, 10]: 1.50 (0.500-3.00) [n = 17] h
AUC (0-24) [1, 11]: 49.4 (83.1%) [n = 17] ng · h/mL
AUC (0-last) [1, 11]: 37.9 (53.2%) [n = 17] ng · h/mL
Cmax [1, 11]: 19.4 (27.6%) [n = 17] ng/mL
Lambda-z [1, 12]: 0.326 [n = 1] l/h
T1/2 [1, 12]: 2.128 [n = 1] h
peak (Cmax) and total exposure (AUC), liquid formulation vs tablet ([1]; listed as KD025 ml): largely similar to that of the tablet reference
food effect on exposure, fed vs fasted [1]: moderate increases in total exposure
median Tmax ([1]; single oral 200 mg as liquid formulation (fed)): 1.5 h
median Tmax ([1]; single oral 200 mg as tablet reference, fed, listed as KD025 ml): 2.00 h and 2 h

O=C([O-])c1ccccc1.[Na+] [Sodium Benzoate]
ADI ([2]; JECFA (1996)): 2-5. The JECFA (1996) has set an ADI of up to 5 mg/kg body- mg/kg body-weight

CC(C)NC(=O)COc1cccc(-c2nc(Nc3ccc4[nH]ncc4c3)c3ccccc3n2)c1 [jet-milled belumosudil]
PSD of wet dispersion in sterile water for irrigation [3]: poor results with readings that were inconsistent between the measurement runs

O=C(O)COc1cccc(-c2nc(Nc3ccc4[nH]ncc4c3)c3ccccc3n2)c1 [KD025m2, 2-(3-(4-(1H-indazol-5-ylamino)quinazolin-2-yl)phenoxy) acetic acid]
Tlag [1, 4]: 1.00 h
AUC % extrap [1, 5]: 5.607 (49.8%) [n = 8]
Lambda-z [1, 5]: 0.281 (43.1%) [n = 8] 1/h
Tlag [1, 7]: 0.00 h
AUC % extrap [1, 8]: 4.453 (60.7%) [n = 10]
Lambda-z [1, 8]: 0.277 (87.4%) [n = 10] 1/h
Tlag [1, 10]: 0.00 h
AUC % extrap [1, 11]: 5.388 (43.1%) [n = 10]
Lambda-z [1, 11]: 0.273 (56.5%) [n = 10] 1/h
peak (Cmax) and total exposure (AUC), liquid formulation vs tablet [1]: similar
half-life ([1]; male, human, oral, 200 mg, tablet reference 200 mg, fed, read-out: geometric mean T1/2 (converted)): 2.47 h
Tmax ([1]; male, human, po, 200 mg, Regimen G: 200 mg Tablet, Fed, single oral dose, healthy male volunteers, median (range), read-out: Tmax): 3 h
AUC(0-inf) ([1]; male, human, po, 200 mg, Regimen G: 200 mg Tablet, Fed, single oral dose, geometric mean (CV%)): 1180 ng·h/mL
half-life ([1]; male, human, po, 200 mg, Regimen G: 200 mg Tablet, Fed, single oral dose, geometric mean (CV%), individual values where n <= 2, read-out: T1/2 (converted)): 2.47 h
AUC(0-t) ([1]; male, human, po, 200 mg, Regimen G: 200 mg Tablet, Fed, single oral dose, geometric mean (CV%), read-out: AUC (0-24)): 1280 ng·h/mL
AUC(0-t) ([1]; male, human, po, 200 mg, Regimen G: 200 mg Tablet, Fed, single oral dose, geometric mean (CV%), read-out: AUC (0-last)): 1200 ng·h/mL
Cmax ([1]; male, human, po, 200 mg, Regimen G: 200 mg Tablet, Fed, single oral dose, geometric mean (CV%), read-out: Cmax): 406 ng/mL
Tmax ([1]; male, human, po, 200 mg, Regimen H: 200 mg Liquid Formulation, Fasted, single oral dose, healthy male volunteers, median (range), read-out: Tmax): 1.5 h
AUC(0-inf) ([1]; male, human, po, 200 mg, Regimen H: 200 mg Liquid Formulation, Fasted, single oral dose, geometric mean (CV%)): 1030 ng·h/mL
half-life ([1]; male, human, po, 200 mg, Regimen H: 200 mg Liquid Formulation, Fasted, single oral dose, geometric mean (CV%), individual values where n <= 2, read-out: T1/2 (converted)): 2.51 h
AUC(0-t) ([1]; male, human, po, 200 mg, Regimen H: 200 mg Liquid Formulation, Fasted, single oral dose, geometric mean (CV%), read-out: AUC (0-24)): 1130 ng·h/mL
AUC(0-t) ([1]; male, human, po, 200 mg, Regimen H: 200 mg Liquid Formulation, Fasted, single oral dose, geometric mean (CV%), read-out: AUC (0-last)): 1080 ng·h/mL
Cmax ([1]; male, human, po, 200 mg, Regimen H: 200 mg Liquid Formulation, Fasted, single oral dose, geometric mean (CV%), read-out: Cmax): 372 ng/mL
Tmax ([1]; male, human, po, 200 mg, Regimen I: 200 mg Liquid Formulation, Fed, single oral dose, healthy male volunteers, median (range), read-out: Tmax): 2 h
AUC(0-inf) ([1]; male, human, po, 200 mg, Regimen I: 200 mg Liquid Formulation, Fed, single oral dose, geometric mean (CV%)): 926 ng·h/mL
half-life ([1]; male, human, po, 200 mg, Regimen I: 200 mg Liquid Formulation, Fed, single oral dose, geometric mean (CV%), individual values where n <= 2, read-out: T1/2 (converted)): 2.54 h
AUC(0-t) ([1]; male, human, po, 200 mg, Regimen I: 200 mg Liquid Formulation, Fed, single oral dose, geometric mean (CV%), read-out: AUC (0-24)): 1180 ng·h/mL
AUC(0-t) ([1]; male, human, po, 200 mg, Regimen I: 200 mg Liquid Formulation, Fed, single oral dose, geometric mean (CV%), read-out: AUC (0-last)): 1120 ng·h/mL
Cmax ([1]; male, human, po, 200 mg, Regimen I: 200 mg Liquid Formulation, Fed, single oral dose, geometric mean (CV%), read-out: Cmax): 319 ng/mL
Tmax ([1]; male, human, po, 200 mg, single oral 200 mg as liquid formulation (fed), read-out: median Tmax): 2 h
Tmax ([1]; male, human, po, 200 mg, single oral 200 mg as tablet reference, fed, read-out: median Tmax): 3 h
food effect on exposure, fed vs fasted [1]: No notable changes

CC(C)NC(=O)COc1cccc(-c2nc(Nc3ccc4[nH]ncc4c3)c3ccccc3n2)c1 [pin-milled API]
PSD of wet dispersion in sterile water for irrigation [3]: reproducibility between replicates

OC[C@H]1O[C@H](O[C@]2(CCl)O[C@H](CCl)[C@@H](O)[C@@H]2O)[C@H](O)[C@@H](O)[C@H]1Cl [Sucralose]
ADI ([2]; set in 2000): An ADI of up to 15 mg/kg body weight was set in 2000. In
